Experimental data taken from patent US6737383B1, “Herbicidal oxadiazolidines” (priority 1999, dated 2004).

Tests used:
wild oat = assay: Test E wild oat; type: in vivo, Avena fatua; conditions: Preemergence
giant foxtail = assay: Test B pre/postemergence giant foxtail; type: in vivo, Setaria faberii
Procedure, shortened: (§1)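 Test chemicals in a non-phytotoxic solvent mixture with surfactant were sprayed preemergence onto planted seeds and postemergence onto plants 2 to 18 cm tall (1- to 4-leaf stage). After twelve to sixteen days in a greenhouse, injury was visually rated against untreated controls from 0 (no effect) to 10 (complete control).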

green foxtail = assay: Test E green foxtail; type: in vivo, Setaria viridis; conditions: Preemergence
winter barley = assay: Test E winter barley; type: in vivo, Hordeum vulgare; conditions: Preemergence
blackgrass = assay: Test E blackgrass; type: in vivo, Alopecurus myosuroides; conditions: Preemergence
winter wheat [1] = assay: Test E winter wheat; type: in vivo, Triticum aestivum; conditions: Postemergence
Procedure, shortened: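 Postemergence: 60:40 sandy loam/greenhouse potting mix, 1- to 4-leaf stage. Formulation: solvent plus surfactant. Assessment: visual comparison with untreated controls at ~21–28 days.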

morningglory = assay: Test B pre/postemergence morningglory; type: in vivo, Ipomoea hederacea
Procedure, shortened: as §1

Italian ryegrass = assay: Test E Italian ryegrass; type: in vivo, Lolium multiflorum; conditions: Preemergence
duck salad = assay: Test B flood test duck salad; type: in vivo, Heteranthera limosa
Procedure, shortened: (§2)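 Flood test on plants grown to the 2-leaf stage; treated plants kept in greenhouse twelve to sixteen days, then visually rated against controls on a 0 (no effect) to 10 (complete control) scale.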

rice = assay: Test B flood test rice; type: in vivo, Oryza sativa
Procedure, shortened: as §2

winter wheat [2] = assay: Test E winter wheat; type: in vivo, Triticum aestivum; conditions: Preemergence
[3] = Rate 125 g/ha, 0 to 100 scale (0 no effect, 100 complete control)
[4] = Postemergence, Rate 125 g/ha, scale 0 to 10, 0 is no effect, 10 is complete control
[5] = Postemergence, Rate 250 g/ha, scale 0 to 10, 0 is no effect, 10 is complete control
[6] = Preemergence, Rate 62 g/ha, scale 0 to 10 (0 no effect, 10 complete control)
[7] = Preemergence, Rate 250 g/ha, scale of 0 to 10 where 0 is no effect and 10 is complete control
[8] = Preemergence, Rate 500 g/ha, scale of 0 to 10 where 0 is no effect and 10 is complete control
[9] = Rate 62 g/ha, Postemergence, scale of 0 to 10 where 0 is no effect and 10 is complete control
[10] = Rate 500 g/ha, Postemergence, scale 0 to 10, 0 no effect, 10 complete control
[11] = Rate 62 g/ha, flood test species, Pre-emergence, visual evaluation after twelve to sixteen days
[12] = Rate 125 g/ha, Pre-emergence, flood test species, scale 0 to 10 where 0 is no effect and 10 is complete control
[13] = Rate 250 g/ha, Pre-emergence, flood-test species, scale 0 to 10, 0 is no effect, 10 is complete control
[14] = Rate 500 g/ha, Pre-emergence, flood test species, scale 0 to 10 (0 no effect, 10 complete control)
[15] = Rate 62 g/ha, 0 to 100 scale, 0 no effect, 100 complete control
[16] = Postemergence, Rate 125 g/ha, scale of 0 to 10 where 0 is no effect and 10 is complete control
[17] = Postemergence, Rate 250 g/ha, scale 0 to 10, 0 no effect, 10 complete control
[18] = Preemergence, Rate 125 g/ha, scale 0 to 10 (0 no effect, 10 complete control)
[19] = Preemergence, Rate 500 g/ha, scale 0 to 10 (0 no effect, 10 complete control)
[20] = Postemergence (flood test species), Rate 125 g/ha, scale of 0 to 10 where 0 is no effect and 10 is complete control
[21] = Rate 62 g/ha, Postemergence section, flood test species, scale of 0 to 10 where 0 is no effect and 10 is complete control
[22] = Rate 250 g/ha, headed Pre-emergence (flood test species), scale 0 to 10 (0 no effect, 10 complete control)
[23] = Rate 500 g/ha, headed Pre-emergence (flood test species), scale 0 to 10 (0 no effect, 10 complete control)
[24] = Rate 500 g/ha, listed under Postemergence (flood test species), scale 0 to 10, 0 no effect, 10 complete control
[25] = Rate 1000 g/ha, Pre-emergence (as headed), scale 0 to 10
[26] = Rate 2000 g/ha, Pre-emergence (as headed), scale 0 to 10
[27] = Rate 500 g/ha, 0 to 100 scale (0 no effect, 100 complete control)
[28] = Rate 1000 g/ha, 0 to 100 scale, 0 no effect, 100 complete control
[29] = Preemergence, Rate 31 g/ha, visual rating, scale 0 to 10 (0 no effect, 10 complete control)
[30] = Preemergence, Rate 62 g/ha, scale of 0 to 10 where 0 is no effect and 10 is complete control
[31] = Rate 31 g/ha, Postemergence, scale 0 to 10
[32] = Rate 62 g/ha, Postemergence, scale 0 to 10 (0 no effect, 10 complete control)
[33] = Rate 125 g/ha, Postemergence, scale of 0 to 10 where 0 is no effect and 10 is complete control
[34] = Rate 125 g/ha, Preemergence, scale of 0 to 10 where 0 is no effect and 10 is complete control
[35] = Rate 250 g/ha, Postemergence, scale of 0 to 10 where 0 is no effect and 10 is complete control
[36] = Rate 31 g/ha, Pre-emergence section (flood test species), scale 0 to 10
[37] = Rate 62 g/ha, headed Pre-emergence (flood test species), scale 0 to 10 (0 no effect, 10 complete control)

CC(C)N(C(=O)n1oc(=O)n(C(C)CCl)c1=O)c1ccc(F)cc1 (centres unmarked) [Compound 367]
6: Plant response rating, Morningglory (morningglory; [5])
8: Plant response rating, Giant foxtail (giant foxtail; [5]) | Plant response rating, Giant foxtail (giant foxtail; [10])
3: Plant response rating, Giant foxtail (giant foxtail; [4])
40: Plant response rating, Wheat (winter) (winter wheat [1]; Rate 250 g/ha, 0 to 100 scale, 0 is no effect, 100 is complete control) | Plant response rating, Wheat (winter) (winter wheat [2]; Rate 250 g/ha, 0 to 100 scale)
30: Plant response rating, Barley (winter) (winter barley; Rate 250 g/ha, 0 to 100 scale, 0 no effect, 100 complete control) | Plant response rating, Blackgrass (blackgrass; Rate 250 g/ha, 0 to 100 scale)
55: Plant response rating, Wild oat (wild oat; [3])
20: Plant response rating, Barley (winter) (winter barley; [3])
5: Plant response rating, Morningglory (morningglory; [4]) | Morningglory plant response rating (morningglory; [9])
50: Plant response rating, Wild oat (wild oat; Rate 250 g/ha, 0 to 100 scale) | Plant response rating, Green foxtail (green foxtail; Rate 250 g/ha, 0 to 100 scale) | Plant response rating, Wheat (winter) (winter wheat [1]; Rate 125 g/ha, 0 to 100 scale, 0 is no effect, 100 is complete control)
10: Plant response rating, Giant foxtail (giant foxtail; [6]) | Giant foxtail plant response rating (0 to 10 scale) (giant foxtail; Preemergence, Rate 125 g/ha) | Giant foxtail plant response rating (giant foxtail; [7]) | Giant foxtail plant response rating (giant foxtail; [8])
70: Plant response rating, Green foxtail (green foxtail; [3])
7: Plant response rating, Morningglory (morningglory; [10])
0: Giant foxtail plant response rating (giant foxtail; [9]) | Plant response rating, Morningglory (morningglory; [6]) | Morningglory plant response rating (0 to 10 scale) (morningglory; Preemergence, Rate 125 g/ha) | Morningglory plant response rating (morningglory; [7]) | Plant response rating, Ducksalad (0 to 10 scale, 0 is no effect, 10 is complete control) (duck salad; [11]) | Ducksalad plant response rating (duck salad; [12]) | Ducksalad plant response rating (duck salad; [13]) | Ducksalad plant response rating (duck salad; [14]) | Plant response rating, Rice (0 to 10 scale, 0 is no effect, 10 is complete control) (rice; [11]) | Rice plant response rating (rice; [12]) | Rice plant response rating (rice; [13]) | Rice plant response rating (rice; [14])
60: Plant response rating, Blackgrass (blackgrass; [3]) | Plant response rating, I. Ryegrass (Italian ryegrass; [3]) | Plant response rating, I. Ryegrass (Italian ryegrass; Rate 250 g/ha, 0 to 100 scale) | Plant response rating, Wheat (winter) (winter wheat [2]; [3])
2: Morningglory plant response rating (morningglory; [8])

CC(C)N(C(=O)n1oc(=O)n(C2CCCCC2)c1=O)c1ccc(Cl)cc1 [Compound 111]
2: Giant foxtail plant response rating (giant foxtail; [16]) | Giant foxtail plant response rating (giant foxtail; [9])
4: Morningglory plant response rating (morningglory; [9])
10: Plant response rating, Giant foxtail (giant foxtail; [7]) | Giant foxtail plant response rating (giant foxtail; [19]) | Plant response rating, Green foxtail (green foxtail; Rate 250 g/ha, 0 to 100 scale)
0: Plant response rating, Wild oat (wild oat; [15]) | Plant response rating, Wild oat (wild oat; [3]) | Plant response rating, Green foxtail (green foxtail; [15]) | Plant response rating, Green foxtail (green foxtail; [3]) | Plant response rating, Barley (winter) (winter barley; [15]) | Plant response rating, Barley (winter) (winter barley; [3]) | Plant response rating, Barley (winter) (winter barley; Rate 250 g/ha, 0 to 100 scale) | Plant response rating, Blackgrass (blackgrass; [15]) | Plant response rating, Blackgrass (blackgrass; [3]) | Plant response rating, Blackgrass (blackgrass; Rate 250 g/ha, 0 to 100 scale) | Plant response rating, Wheat (winter) (winter wheat [1]; Rate 62 g/ha, 0 to 100 scale) | Plant response rating, Wheat (winter) (winter wheat [1]; Rate 125 g/ha, 0 to 100 scale) | Plant response rating, Wheat (winter) (winter wheat [1]; Rate 250 g/ha, 0 to 100 scale (0 no effect, 100 complete control)) | Morningglory plant response rating (morningglory; [6]) | Plant response rating, Morningglory (morningglory; [18]) | Plant response rating, Morningglory (morningglory; [7]) | Morningglory plant response rating (morningglory; [19]) | Plant response rating, I. Ryegrass (Italian ryegrass; [15]) | Plant response rating, I. Ryegrass (Italian ryegrass; [3]) | Plant response rating, I. Ryegrass (Italian ryegrass; Rate 250 g/ha, 0 to 100 scale) | Ducksalad plant response rating (duck salad; [20]) | Ducksalad plant response rating (duck salad; [21]) | Ducksalad plant response rating (duck salad; [22]) | Plant response rating, Ducksalad (duck salad; [23]) | Ducksalad plant response rating (duck salad; [24]) | Ducksalad plant response rating (duck salad; [25]) | Ducksalad plant response rating (duck salad; [26]) | Ducksalad plant response rating (duck salad; flood test, listed under Postemergence, Rate 250 g/ha, scale 0 to 10, 0 no effect, 10 complete control) | Rice plant response rating (rice; [20]) | Rice plant response rating (rice; [21]) | Plant response rating, Rice (rice; Rate 250 g/ha, Postemergence (flood test), scale 0 to 10, 0 is no effect, 10 is complete control) | Rice plant response rating (rice; [22]) | Plant response rating, Rice (rice; [23]) | Rice plant response rating (rice; [24]) | Rice plant response rating (rice; [25]) | Rice plant response rating (rice; [26]) | Plant response rating, Wheat (winter) (winter wheat [2]; [15]) | Plant response rating, Wheat (winter) (winter wheat [2]; [3]) | Plant response rating, Wheat (winter) (winter wheat [2]; Rate 250 g/ha, 0 to 100 scale)
9: Plant response rating, Giant foxtail (giant foxtail; [18]) | Giant foxtail plant response rating (giant foxtail; [10])
5: Giant foxtail plant response rating (giant foxtail; [17]) | Morningglory plant response rating (morningglory; [16]) | Morningglory plant response rating (morningglory; [17])
8: Giant foxtail plant response rating (giant foxtail; [6]) | Morningglory plant response rating (morningglory; [10])

CC(C)=CCn1c(=O)on(C(=O)N(c2ccc(F)cc2)C(C)C)c1=O [Compound 288]
7: Morningglory plant response rating (morningglory; [32])
9: Giant foxtail plant response rating (giant foxtail; [34])
20: Wild oat plant response rating (0 to 100 scale) (wild oat; Rate 250 g/ha)
60: Plant response rating, Green foxtail (green foxtail; [27]) | Plant response rating, I. Ryegrass (Italian ryegrass; [28])
8: Morningglory plant response rating (morningglory; [33]) | Plant response rating, Morningglory (morningglory; [35])
5: Giant foxtail plant response rating (giant foxtail; [30]) | Plant response rating, Barley (winter) (winter barley; [27])
3: Morningglory plant response rating (morningglory; [31])
55: Plant response rating, Wheat (winter) (winter wheat [2]; [28])
0: Giant foxtail plant response rating (giant foxtail; [29]) | Giant foxtail plant response rating (giant foxtail; [31]) | Giant foxtail plant response rating (giant foxtail; [32]) | Giant foxtail plant response rating (giant foxtail; [33]) | Plant response rating, Giant foxtail (giant foxtail; [35]) | Barley (winter) plant response rating (0 to 100 scale) (winter barley; Rate 250 g/ha) | Morningglory plant response rating (morningglory; [29]) | Morningglory plant response rating (morningglory; [30]) | Morningglory plant response rating (morningglory; [7]) | Morningglory plant response rating (morningglory; [34]) | Ducksalad plant response rating (duck salad; [36]) | Ducksalad plant response rating (duck salad; [37]) | Ducksalad plant response rating (duck salad; [12]) | Ducksalad plant response rating (duck salad; [13]) | Rice plant response rating (rice; [36]) | Rice plant response rating (rice; [37]) | Rice plant response rating (rice; [12]) | Rice plant response rating (rice; [13])
40: Plant response rating, Wheat (winter) (winter wheat [1]; Rate 1000 g/ha, 0 to 100 scale where 0 is no effect and 100 is complete control) | Wheat (winter) plant response rating (0 to 100 scale) (winter wheat [2]; Rate 250 g/ha)
10: Giant foxtail plant response rating (giant foxtail; [7]) | Plant response rating, Barley (winter) (winter barley; [28])
100: Plant response rating, Green foxtail (green foxtail; [28])
30: Plant response rating, Wild oat (wild oat; [27]) | Plant response rating, Wheat (winter) (winter wheat [1]; Rate 500 g/ha, 0 to 100 scale, 0 is no effect, 100 is complete control) | I. Ryegrass plant response rating (0 to 100 scale) (Italian ryegrass; Rate 250 g/ha) | Plant response rating, Wheat (winter) (winter wheat [2]; [27])
50: Plant response rating, Wild oat (wild oat; [28]) | Green foxtail plant response rating (0 to 100 scale) (green foxtail; Rate 250 g/ha) | Blackgrass plant response rating (0 to 100 scale) (blackgrass; Rate 250 g/ha) | Plant response rating, Blackgrass (blackgrass; [27]) | Plant response rating, I. Ryegrass (Italian ryegrass; [27])
35: Wheat (winter) plant response rating (winter wheat [1]; Rate 250 g/ha, 0 to 100 scale where 0 is no effect and 100 is complete control)
